According to patent US20040161820A1 (priority 2001, published 2004):

Legend:
Format in all cases: cell-based
BG 01 = test: MIC of G418 in liquid medium; details: industrial strain BG 01
Description: (§1) Bacterial strains used as plasmid hosts included: Escherichia coli DH5: F'lendA1 hsdr17 (rk^−mk^−) supE44 thi-1 recA1 gyrA(Nal^r) relA1 (lacZYA-argF)U169 deoR (80dlac (lacZ)M15) (Sambrook et al., 1989). Yeast were tested in solid medium YPD and eight industrial strains, from laboratory and seven Amazonian strains were sensitive to 200 μg/ml and 500 μg/ml of G418. Afterwards, the minimum concentration of antibiotic that inhibits the growth (MIC) in liquid medium was determined (Table 1).

CR-01 = test: MIC of G418 in liquid medium; details: industrial strain CR-01
Description: as §1

Fermix = test: MIC of G418 in liquid medium; details: industrial strain Fermix
Description: as §1

L101 = test: MIC of G418 in liquid medium; details: wild-type Amazon strain L101
Description: as §1

L103 = test: MIC of G418 in liquid medium; details: wild-type Amazon strain L103
Description: as §1

L105 = test: MIC of G418 in liquid medium; details: industrial strain L105
Description: as §1

L106 = test: MIC of G418 in liquid medium; details: industrial strain L106
Description: as §1

L110 = test: MIC of G418 in liquid medium; details: wild-type Amazon strain L110
Description: as §1

L136 = test: MIC of G418 in liquid medium; details: wild-type Amazon strain L136
Description: as §1

L151 = test: MIC of G418 in liquid medium; details: wild-type Amazon strain L151
Description: as §1

L69 = test: MIC of G418 in liquid medium; details: wild-type Amazon strain L69
Description: as §1

L77 = test: MIC of G418 in liquid medium; details: wild-type Amazon strain L77
Description: as §1

[1] = tested on: Montrachet de la Champagne; test: MIC of G418 in liquid medium; details: industrial strain Montrachet de la Champagne
Description: as §1

PE-2 = test: MIC of G418 in liquid medium; details: industrial strain PE-2
Description: as §1

S288C = test: MIC of G418 in liquid medium; details: Saccharomyces cerevisiae, strain S288C
Description: as §1

YPH252 = test: MIC of G418 in liquid medium; details: Saccharomyces cerevisiae, strain YPH252
Description: as §1

SA-01 = test: organism not typed

SMILES: CN[C@@H]1[C@@H](O)[C@@H](O[C@@H]2[C@@H](O)[C@H](O[C@H]3O[C@H]([C@@H](C)O)[C@@H](O)[C@H](O)[C@H]3N)[C@@H](N)C[C@H]2N)OC[C@]1(C)O [G418, geneticin]
- MIC (BG 01): ≤ 50 µg/mL
- MIC (CR-01): ≤ 50 µg/mL
- MIC (Fermix): ≤ 50 µg/mL
- MIC (L101): 100 µg/mL
- MIC (L103): 150 µg/mL
- MIC (L105): 25 µg/mL
- MIC (L106): 25 µg/mL
- MIC (L110): 150 µg/mL
- MIC (L136): 25 µg/mL
- MIC (L151): 12.5 µg/mL
- MIC (L69): 100 µg/mL
- MIC (L77): 25 µg/mL
- MIC [1]: ≦50 μg/ml
- MIC (PE-2): ≤ 50 µg/mL
- MIC (S288C): 100 µg/mL
- MIC (YPH252): ≤ 50 µg/mL
- MIC (SA-01): ≤ 50 µg/mL
